Assay results reported in US20240228488A1 (TAKEDA PHARMACEUTICAL COMPANY LIMITED, priority 2021, published 2024).

Target: human activated kallikrein enzyme (Homo sapiens, UniProt P03952)
Assay: Plasma kallikrein inhibition, fluorogenic PFR-AMC substrate, 500 pM activated kallikrein format
Assay type: biochemical
Details: 500 pM activated kallikrein, 300 uM PFR-AMC, 30 min preincubation, 10 min reaction; read-out: Primary Dose Response Assay: Average EC50
How it was run: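 Enzyme at 500 pM preincubated 30 min RT with inhibitors in 20 mM Tris pH 7.5, 1 mM EDTA, 150 mM NaCl, 0.1% PEG-400, 0.1% Triton X-100. Reaction started with 300 uM PFR-AMC, run 10 min RT; fluorescence read at 460 nm emission, 380 nm excitation. EC50 reported in ranges.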

human activated kallikrein enzyme, sequence (P03952 391-638 limits assumed): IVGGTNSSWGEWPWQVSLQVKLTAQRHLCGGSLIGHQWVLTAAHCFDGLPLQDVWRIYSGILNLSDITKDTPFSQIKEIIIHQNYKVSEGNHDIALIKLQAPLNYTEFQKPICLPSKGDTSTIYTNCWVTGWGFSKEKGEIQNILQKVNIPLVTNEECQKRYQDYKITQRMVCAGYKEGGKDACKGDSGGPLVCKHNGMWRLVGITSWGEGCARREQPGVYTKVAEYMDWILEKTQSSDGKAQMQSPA
human activated kallikrein enzyme, sequence (P03952 20-390 partner limits assumed): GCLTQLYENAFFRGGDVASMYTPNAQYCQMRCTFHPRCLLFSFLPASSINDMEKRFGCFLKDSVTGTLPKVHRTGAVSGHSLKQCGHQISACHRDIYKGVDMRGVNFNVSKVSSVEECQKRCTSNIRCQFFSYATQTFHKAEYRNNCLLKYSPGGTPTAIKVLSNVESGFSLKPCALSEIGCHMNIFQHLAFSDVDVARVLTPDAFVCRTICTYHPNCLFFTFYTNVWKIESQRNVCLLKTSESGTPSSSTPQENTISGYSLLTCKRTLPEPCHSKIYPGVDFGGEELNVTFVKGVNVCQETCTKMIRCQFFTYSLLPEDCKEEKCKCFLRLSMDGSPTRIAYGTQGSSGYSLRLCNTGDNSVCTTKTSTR

| Compound | EC50 [nM] |
| --- | --- |
| CCc1cc(N2CC(=O)N(C)C2=O)c2nc(CNc3cc(NC(=O)[C@H]4C[C@@H]4c4nccc(C)n4)nc(C)n3)cn2c1 [Example 537, (1S,2S)-N-(6-(((6-ethyl-8-(3-methyl-2,4-dioxoimidazolidin-1-yl)imidazo[1,2-a]pyridin-2-yl)methyl)amino)-2-methylpyrimidin-4-yl)-2-(4-methylpyrimidin-2-yl)cyclopropane-1-carboxamide] | < 1 |
| Cc1ccnc([C@H]2C[C@@H]2C(=O)Nc2cc(OC(C)c3cn4cc(C5CC5)cc(N5CCOC5=O)c4n3)cnn2)n1 (stereo partly drawn) [Example 37, (1S,2S)-N-(5-(1-(6-cyclopropyl-8-(2-oxooxazolidin-3-yl)imidazo[1,2-α]pyridin-2-yl)ethoxy)pyridazin-3-yl)-2-(4-methylpyrimidin-2-yl)cyclopropane-1-carboxamide] | < 1 |
| Cc1ccnc([C@H]2C[C@@H]2C(=O)Nc2ncc3c(n2)N(Cc2cn4cc(C5CC5)cc(N5CC(=O)N(C)C5=O)c4n2)CCO3)n1 [Example 631] | < 1 |
| Cc1ccnc([C@H]2C[C@@H]2C(=O)Nc2cc(N[C@@H](C)c3cn4cc(C5CC5)cc(N5CC(=O)N(C)C5=O)c4n3)nc(C)n2)n1 [Example 455, (1S,2S)—N-(6S-((1-(6-cyclopropyl-8-(3-methyl-2,4-dioxoimidazolidin-1-yl)imidazo[1,2-a]pyridin-2-yl)ethyl)amino)-2-methylpyrimidin-4-yl)-2-(4-methylpyrimidin-2-yl)cyclopropane-1-carboxamide] | 10 to 100 |
| CN1CCN(c2cc(Cl)cn3cc(CNc4ccnc(NC(=O)[C@H]5C[C@@H]5c5cccc(Cl)c5)c4)nc23)CC1 [Example I-252, (1S,2S)-N-(4-(((6-chloro-8-(4-methylpiperazin-1-yl)imidazo[1,2-a]pyridin-2-yl)methyl)amino)pyridin-2-yl)-2-(3-chlorophenyl)cyclopropane-1-carboxamide] | < 1 |
| Cc1ccnc([C@H]2C[C@@H]2C(=O)Nc2ccc(F)c(OCc3cn4cc(C5CC5)cc(N5CC(=O)N(C)C5=O)c4n3)c2)n1 [Example 657, (1S,2S)—N-(3-((6-cyclopropyl-8-(3-methyl-2,4-dioxoimidazolidin-1-yl)imidazo[1,2-a]pyridin-2-yl)methoxy)-4-fluorophenyl)-2-(4-methylpyrimidin-2-yl)cyclopropane-1-carboxamide] | < 1 |
| CC1CCC(=O)N1c1cc(C2CC2)cn2cc(CNc3ccnc(NC(=O)[C@H]4C[C@@H]4c4cccc(Cl)c4)c3)nc12 (mixture of isomers) [Example 89, (1S,2S)-2-(3-chlorophenyl)-N-(4-(((6-cyclopropyl-8-(2-methyl-5-oxopyrrolidin-1-yl)imidazo[1,2-a]pyridin-2-yl)methyl)amino)pyridin-2-yl)cyclopropane-1-carboxamide] | < 1 |
| N#Cc1cc(Cl)sc1[C@H]1C[C@@H]1C(=O)Nc1cc(NCc2cn3cc(C4CC4)ccc3n2)ncn1 (racemic) [Example I-179, rac-(1S*,2S*)-2-(5-chloro-3-cyanothiophen-2-yl)-N-(6-(((6-cyclopropylimidazo[1,2-a]pyridin-2-yl)methyl)amino)pyrimidin-4-yl)cyclopropane-1-carboxamide] | 100 to 1000 |
| O=C(Nc1cc(NCc2cn3cc(C4CC4)ccc3n2)ncn1)[C@H]1C[C@@H]1c1cc(Cl)ccc1-n1cnnn1 (racemic) [Example 316, rac-(1S*,2S*)-2-(5-chloro-2-(1H-tetrazol-1-yl)phenyl)-N-(6-(((6-cyclopropylimidazo[1,2-a]pyridin-2-yl)methyl)amino)pyrimidin-4-yl)cyclopropane-1-carboxamide] | 1 to 10 |
| Cc1ccnc([C@H]2C[C@@H]2C(=O)Nc2cc(N[C@H](C)c3cn4cc(C5CC5)cc(N=S(C)(C)=O)c4n3)nc(C)n2)n1 [Example 431, (1S,2S)-N-(6-(((R)-1-(6-cyclopropyl-8-((dimethyl(oxo)-16-sulfaneylidene)amino)imidazo[1,2-a]pyridin-2-yl)ethyl)amino)-2-methylpyrimidin-4-yl)-2-(4-methylpyrimidin-2-yl)cyclopropane-1-carboxamide] | < 1 |
| Cc1ccnc([C@@H]2C[C@H]2C(=O)Nc2cc(OCc3cn4cc(C5CC5)cc(N5CC(=O)N(C)C5=O)c4n3)ncn2)n1 (single isomer, unassigned) [Example 29] | 100 to 1000 |
| N#Cc1ccc(Cl)cc1[C@H]1C[C@@H]1C(=O)Nc1cc(NCc2cn3cc(C4CC4)ccc3n2)ncn1 (racemic) [Example 48, rac-(1S*,2S*)-2-(5-chloro-2-cyanophenyl)-N-(6-(((6-cyclopropylimidazo[1,2-a]pyridin-2-yl)methyl)amino)pyrimidin-4-yl)cyclopropane-1-carboxamide] | 1 to 10 |
| O=C(Nc1cc2c(cn1)OCCN2Cc1cn2cc(C3CC3)ccc2n1)[C@H]1C[C@@H]1c1cccc(Cl)c1 [Example 597, (1S,2S)-2-(3-chlorophenyl)-N-(1-((6-cyclopropylimidazo[1,2-a]pyridin-2-yl)methyl)-2,3-dihydro-1H-pyrido[3,4-b][1,4]oxazin-7-yl)cyclopropane-1-carboxamide] | 1 to 10 |
| O=C(Nc1cc(NCc2cn3cc(C4CC4)ccc3n2)ncn1)[C@H]1C[C@@H]1c1ccc(F)c(Cl)c1 (racemic) [Example 45, rac-(1S*,2S*)-2-(3-chloro-4-fluorophenyl)-N-(6-(((6-cyclopropylimidazo[1,2-a]pyridin-2-yl)methyl)amino)pyrimidin-4-yl)cyclopropane-1-carboxamide] | 100 to 1000 |
| N#Cc1ccc(Cl)cc1[C@H]1C[C@@H]1C(=O)Nc1cc(NCc2cn3cc(C4CC4)ccc3n2)ccn1 (single isomer, unassigned) [Example 84] | < 1 |
| Cc1ccnc([C@H]2C[C@@H]2C(=O)Nc2cc(NC(C)c3cn4cc(C5CC5)cc(N5CC(=O)N(CCOCc6ccccc6)C5=O)c4n3)nc(C3CC3)n2)n1 (stereo partly drawn) [Example 409, (1S,2S)-N-(6-((1-(8-(3-(2-(benzyloxy)ethyl)-2,4-dioxoimidazolidin-1-yl)-6-cyclopropylimidazo[1,2-a]pyridin-2-yl)ethyl)amino)-2-cyclopropylpyrimidin-4-yl)-2-(4-methylpyrimidin-2-yl)cyclopropane-1-carboxamide] | 10 to 100 |
| Cc1ccnc([C@H]2C[C@@H]2C(=O)Nc2cc(N[C@H](C)c3cn4cc(C5CC5)cc(N=S(C)(C)=O)c4n3)ncn2)n1 [Example 422, (1S,2S)-N-(6-(((R)-1-(6-cyclopropyl-8-((dimethyl(oxo)-16-sulfaneylidene)amino)imidazo[1,2-a]pyridin-2-yl)ethyl)amino)pyrimidin-4-yl)-2-(4-methylpyrimidin-2-yl)cyclopropane-1-carboxamide] | < 1 |
| Cc1ccnc([C@H]2C[C@@H]2C(=O)Nc2cccc(OCc3cn4cc(C5CC5)cc(N5CC(=O)N(C)C5=O)c4n3)c2)n1 [Example I-643, (1S,2S)—N-(3-((6-cyclopropyl-8-(3-methyl-2,4-dioxoimidazolidin-1-yl)imidazo[1,2-a]pyridin-2-yl)methoxy)phenyl)-2-(4-methylpyrimidin-2-yl)cyclopropane-1-carboxamide] | < 1 |
| O=C(Nc1cc(NCc2cn3cc(C4CC4)cc(N4CCN5CC(F)(F)CC5C4)c3n2)ccn1)[C@H]1C[C@@H]1c1cccc(Cl)c1 (stereo partly drawn) [Example I-230, (1S,2S)-2-(3-chlorophenyl)-N-(4-(((6-cyclopropyl-8-(7,7-difluorohexahydropyrrolo[1,2-a]pyrazin-2(1H)-yl)imidazo[1,2-a]pyridin-2-yl)methyl)amino)pyridin-2-yl)cyclopropane-1-carboxamide] | 1 to 10 |
| Nc1ccc([C@H]2C[C@@H]2C(=O)Nc2cc(NCc3cn4cc(C5CC5)ccc4n3)ncn2)cc1Cl (racemic) [Example 278, rac-(1S*,2S*)-2-(4-amino-3-chlorophenyl)-N-(6-(((6-cyclopropylimidazo[1,2-a]pyridin-2-yl)methyl)amino)pyrimidin-4-yl)cyclopropane-1-carboxamide] | 100 to 1000 |
| O=C(Nc1cc(NCc2cn3cc(C4CC4)cc(OCc4ccccc4)c3n2)ncn1)[C@H]1C[C@@H]1c1cccc(Cl)c1 [Example I-148, (1S,2S)-N-(6-(((8-(benzyloxy)-6-cyclopropylimidazo[1,2-a]pyridin-2-yl)methyl)amino)pyrimidin-4-yl)-2-(3-chlorophenyl)cyclopropane-1-carboxamide] | 10 to 100 |
| COc1ccc(=O)n([C@H]2C[C@@H]2C(=O)Nc2cc(NCc3cn4cc(C5CC5)ccc4n3)ncn2)c1 (racemic) [Example I-181, rac-(1S*,2S*)-N-(6-(((6-cyclopropylimidazo[1,2-a]pyridin-2-yl)methyl)amino)pyrimidin-4-yl)-2-(5-methoxy-2-oxopyridin-1(2H)-yl)cyclopropane-1-carboxamide] | > 6000 |
| O=C(Nc1cc(NCc2cn3cc(C4CC4)ccc3n2)ncn1)[C@@H]1C[C@]12C(=O)Nc1ccc(Cl)cc12 (racemic) [Example 509, rac-(1R*,2S*)-5′-chloro-N-(6-(((6-cyclopropylimidazo[1,2-a]pyridin-2-yl)methyl)amino)pyrimidin-4-yl)-2′-oxospiro[cyclopropane-1,3′-indoline]-2-carboxamide] | < 1 |
| O=C(Nc1cnnc(NCc2cn3cc(C4CC4)ccc3n2)c1)[C@H]1C[C@@H]1c1cccc(Cl)c1 (racemic) [Example 348, (rac-(1S*,2S*))-2-(3-chlorophenyl)-N-(6-(((6-cyclopropylimidazo[1,2-a]pyridin-2-yl)methyl)amino)pyridazin-4-yl)cyclopropane-1-carboxamide] | 1 to 10 |
| Cc1ccnc([C@H]2C[C@@H]2C(=O)Nc2cc(N[C@H](C)c3cn4cc(Cl)cc(N5CC(=O)N(C)C5=O)c4n3)ncn2)n1 [Example 421, (1S,2S)-N-(6-(((R)-1-(6-chloro-8-(3-methyl-2,4-dioxoimidazolidin-1-yl)imidazo[1,2-a]pyridin-2-yl)ethyl)amino)pyrimidin-4-yl)-2-(4-methylpyrimidin-2-yl)cyclopropane-1-carboxamide] | < 1 |
